Results: ChEMBL document CHEMBL1909046, “DrugMatrix in vitro pharmacology data”

How the values were obtained:
Neutrophil elastase = biological target: T1, Neutrophil elastase (Homo sapiens, UniProt P08246); assay type: tissue-based;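 also: inhibition of neutrophil elastase enzyme activity, measured with a p-nitroanilide-linked peptide substrate; in other assays of this panel Not Active means under 50% inhibition at 10 µM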
T1 sequence (P08246 whole entry): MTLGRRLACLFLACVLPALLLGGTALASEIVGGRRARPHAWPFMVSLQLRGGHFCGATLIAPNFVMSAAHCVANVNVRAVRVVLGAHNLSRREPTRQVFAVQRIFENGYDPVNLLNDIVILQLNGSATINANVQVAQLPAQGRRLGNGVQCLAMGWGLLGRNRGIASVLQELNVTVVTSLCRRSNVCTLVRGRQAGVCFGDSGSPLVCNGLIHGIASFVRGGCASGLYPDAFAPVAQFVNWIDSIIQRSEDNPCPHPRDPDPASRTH

[1] = DRUGMATRIX: Leukotriene, BLT (LTB4) radioligand binding (ligand: [3H]LTB4); assay type: cell membranes, Membrane; conditions: u-937; Not Active = under 50% inhibition at 10 µM
[2] = biological target: T2, Type-2 angiotensin II receptor (Homo sapiens, UniProt P50052); assay type: cell-based; conditions: cho-k1; also: in other assays of this panel Not Active means under 50% inhibition at 10 µM
T2 sequence (P50052 whole entry): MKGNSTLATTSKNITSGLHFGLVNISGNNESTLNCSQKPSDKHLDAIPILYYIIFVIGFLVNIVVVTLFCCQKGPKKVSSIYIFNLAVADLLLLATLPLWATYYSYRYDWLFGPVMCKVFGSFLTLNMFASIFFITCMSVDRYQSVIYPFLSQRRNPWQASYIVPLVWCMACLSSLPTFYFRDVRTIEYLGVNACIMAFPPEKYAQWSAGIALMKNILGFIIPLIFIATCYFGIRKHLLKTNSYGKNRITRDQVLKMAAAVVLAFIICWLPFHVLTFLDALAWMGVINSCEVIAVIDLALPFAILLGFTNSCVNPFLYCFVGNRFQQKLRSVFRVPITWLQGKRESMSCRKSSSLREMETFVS

Cytochrome P450 2C9 = Cytochrome P450 2C9 (Homo sapiens, UniProt P11712); conditions: bti-tn-5b1-4; also: in other assays of this panel Not Active means under 50% inhibition at 10 µM
Sequence of Cytochrome P450 2C9 (P11712 whole entry): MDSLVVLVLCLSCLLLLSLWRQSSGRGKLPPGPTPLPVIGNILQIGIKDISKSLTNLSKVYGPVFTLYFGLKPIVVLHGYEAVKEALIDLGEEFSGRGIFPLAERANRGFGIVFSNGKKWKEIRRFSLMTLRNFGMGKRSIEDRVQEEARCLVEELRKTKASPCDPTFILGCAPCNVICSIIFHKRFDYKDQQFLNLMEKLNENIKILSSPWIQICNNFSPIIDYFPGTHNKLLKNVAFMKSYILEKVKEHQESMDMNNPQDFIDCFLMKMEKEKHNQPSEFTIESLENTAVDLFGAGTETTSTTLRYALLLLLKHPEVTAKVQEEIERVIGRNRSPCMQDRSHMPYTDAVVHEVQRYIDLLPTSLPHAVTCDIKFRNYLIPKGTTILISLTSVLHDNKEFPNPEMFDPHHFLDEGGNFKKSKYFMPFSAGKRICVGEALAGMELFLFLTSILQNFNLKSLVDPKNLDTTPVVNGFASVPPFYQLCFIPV

[3] = DRUGMATRIX: Phosphodiesterase PDE4 enzyme inhibition (substrate: [3H]cAMP + cAMP); conditions: u-937; Not Active = under 50% inhibition at 10 µM
[4] = biological target: T3, Nitric oxide synthase, inducible (Mus musculus, UniProt P29477); design: species or system Escherichia coli;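 also: inhibition of iNOS enzyme activity measured with L-arginine as substrate; in other assays of this panel Not Active means under 50% inhibition at 10 µM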
T3 sequence (P29477 whole entry): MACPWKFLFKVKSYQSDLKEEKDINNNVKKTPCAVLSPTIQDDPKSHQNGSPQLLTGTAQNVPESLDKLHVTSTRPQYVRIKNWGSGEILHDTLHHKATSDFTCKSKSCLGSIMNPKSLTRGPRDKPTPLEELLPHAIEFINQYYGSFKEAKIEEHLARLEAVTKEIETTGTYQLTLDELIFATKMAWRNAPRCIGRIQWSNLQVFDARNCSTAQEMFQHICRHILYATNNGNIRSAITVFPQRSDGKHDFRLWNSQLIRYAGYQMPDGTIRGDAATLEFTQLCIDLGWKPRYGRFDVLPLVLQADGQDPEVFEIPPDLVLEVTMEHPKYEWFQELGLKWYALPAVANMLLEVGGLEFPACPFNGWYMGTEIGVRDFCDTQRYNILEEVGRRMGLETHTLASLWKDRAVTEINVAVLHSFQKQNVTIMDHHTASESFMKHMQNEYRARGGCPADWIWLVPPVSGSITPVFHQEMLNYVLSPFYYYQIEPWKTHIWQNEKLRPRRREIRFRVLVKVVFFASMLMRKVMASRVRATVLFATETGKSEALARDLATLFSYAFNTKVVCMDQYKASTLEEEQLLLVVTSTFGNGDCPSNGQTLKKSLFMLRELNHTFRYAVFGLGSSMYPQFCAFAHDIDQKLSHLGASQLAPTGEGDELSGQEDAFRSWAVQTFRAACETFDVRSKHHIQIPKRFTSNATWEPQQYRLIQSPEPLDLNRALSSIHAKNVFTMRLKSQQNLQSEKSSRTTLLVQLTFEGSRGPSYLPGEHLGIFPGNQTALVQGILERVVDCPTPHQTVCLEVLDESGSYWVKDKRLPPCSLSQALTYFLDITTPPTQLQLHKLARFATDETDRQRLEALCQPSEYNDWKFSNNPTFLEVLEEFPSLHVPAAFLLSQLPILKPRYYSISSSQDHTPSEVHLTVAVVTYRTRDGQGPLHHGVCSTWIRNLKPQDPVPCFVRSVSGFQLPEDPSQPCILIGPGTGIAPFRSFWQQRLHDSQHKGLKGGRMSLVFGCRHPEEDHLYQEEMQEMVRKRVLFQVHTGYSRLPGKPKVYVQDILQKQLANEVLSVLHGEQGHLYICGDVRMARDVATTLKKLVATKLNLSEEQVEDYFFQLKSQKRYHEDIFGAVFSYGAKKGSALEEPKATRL

[5] = biological target: Delta-type opioid receptor (Homo sapiens, UniProt P41143); assay type: cell membranes, HEK293, Membrane; conditions: hek293; also: in other assays of this panel Not Active means under 50% inhibition at 10 µM
Sequence of Delta-type opioid receptor (P41143 whole entry): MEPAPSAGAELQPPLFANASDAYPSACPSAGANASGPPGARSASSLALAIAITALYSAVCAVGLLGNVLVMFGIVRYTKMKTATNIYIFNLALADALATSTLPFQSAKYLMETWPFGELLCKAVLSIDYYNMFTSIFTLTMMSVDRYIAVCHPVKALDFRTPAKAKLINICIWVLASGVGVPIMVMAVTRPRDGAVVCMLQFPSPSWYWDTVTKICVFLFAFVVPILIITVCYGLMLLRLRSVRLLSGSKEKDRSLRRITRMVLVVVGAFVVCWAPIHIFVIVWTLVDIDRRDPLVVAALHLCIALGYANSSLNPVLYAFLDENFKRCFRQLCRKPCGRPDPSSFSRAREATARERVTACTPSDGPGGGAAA

OC[C@H]1O[C@@H]2O[C@H]3[C@H](O)[C@@H](O)[C@@H](O[C@H]4[C@H](O)[C@@H](O)[C@@H](O[C@H]5[C@H](O)[C@@H](O)[C@@H](O[C@H]6[C@H](O)[C@@H](O)[C@@H](O[C@H]7[C@H](O)[C@@H](O)[C@@H](O[C@H]1[C@H](O)[C@H]2O)O[C@@H]7CO)O[C@@H]6CO)O[C@@H]5CO)O[C@@H]4CO)O[C@@H]3CO [ALFADEX]
Not Active: IC50 (Neutrophil elastase) | IC50 [1] | Ki [1] | IC50 [2] | IC50 (Cytochrome P450 2C9) | Ki (Cytochrome P450 2C9) | IC50 [3] | Ki [3] | IC50 [4] | IC50 [5]
